Data reported in patent US20060241108A1, “Substituted phenoxazines and acridones as inhibitors of AKT” (St. Jude Children's Research Hospital, priority 2005, published 2006).
Where two headings read alike, the source gives them in different places. Marks after values point to notes of the source that are not given here.

Experiments:
Rh30 cells [1] = test: Determination of apoptosis (Annexin V-FITC/propidium iodide flow cytometry), Rh30 cells; details: Rh30, 7.5 μM, four days, n = 3
Procedure: (§4) Determination of apoptosis. An ApoAlert™ Annexin V-FITC Apoptosis kit (available from Clontech, Palo Alto, Calif.) can be used to evaluate the extent of apoptosis within cell populations. Cells (Rh1: 350,000 per 75-cm^2 flask; Rh18: 800,000 per 75-cm^2 flask; or Rh30: 500,000 per 75-cm^2 flask) are preferably grown overnight in complete medium. On day 1, cells are treated with DMSO (0.1%; vehicle control) or with a test compound (e.g., a phenoxazine or acridone compound). After 4 days, the cells are trypsinized, washed with PBS, and resuspended in 200 μl of binding buffer. Cells are then incubated with 10 μl of annexin V-FITC (final concentration, 1 μg/ml) and 500 ng of propidium iodide in a final volume of 410 μl. Cells are preferably incubated at room temperature in the dark for ten minutes before flow cytometric analysis with an FACSCalibur™ Flow Cytometry System (Becton Dickinson, San Jose, Calif.).
(§5) For instance, Rh1, Rh18 and/or Rh30 cells can be grown in complete medium with 0.1% DMSO (as a negative control) or with one or more test compounds, e.g., any of the phenoxazine compounds listed in Table I, above, including but not limited to the compounds 10B, 11B, 13B, 14B or 15B. […] Cells are then harvested, and the extent of apoptosis evaluated, e.g., by an ApoAlert™ (Clontech, Palo Alto, Calif.) flow cytometric assay.

Rh18 cells [2] = test: Cell growth inhibition, Rh18 cells; type: cell-based, human; details: complete medium, six days, nuclei counted
Procedure: (§1) Cell lines and growth conditions. The human cell lines Rh1, Rh18, and Rh30 (ATCC Deposit # CRL 2061) have been described, e.g., by Hazelton et al. Cancer Res 1987;47:4501-4507 and Hosoi et al. Cancer Res. 1999;59:886-894. Rh1, Rh18 and Rh30 cells can each be grown in antibiotic free RPMI-1640 medium (available from BioWhittaker, Walkersville, Md.), supplemented with 10% fetal bovine serum (available from HyClone Laboratories, Logan, Utah) and 2 mM L-glutamine (available from BioWhittaker, Walkersville, Md.) at 37° C. in an atmosphere of 5% CO2. For serum free experiments, cells can be cultured in modified N2E (MN2E) medium (DMEM/F-12, 1:1 mixture) (Sigma, St. Louis, Mo.) supplemented with 1 μg/ml human holo transferrin, 30 nM sodium selenite, 20 nM progesterone, 100 μM putrescine, 30 nM vitamin E phosphate, and 50 μM ethanolamine. […]
(§2) Cell growth inhibition. […] Growth can be assessed after lysing cells, and counting nuclei. […]
(§3) The effect(s) of compounds, including phenoxazine compounds such as those listed in Table I, above, on cell growth can be evaluated in cell-based assays such as the exemplary assays described here. Rh1, Rh18 and/or Rh30 cells grown in complete medium can be exposed to graded concentrations of test compound (e.g., from 0.1 to 25 μM) for six days, at which time the cells can be lysed and their growth assessed by counting nuclei. […]

Rh1 cells [3] = details: 6.5 µM
Procedure: as §4, §5

Rh30 cells [4] = details: 7.5 µM
Procedure: as §4, §5

Rh1 cells [5] = test: Cell growth inhibition, Rh1 cells; type: cell-based, human; details: complete medium, six days, nuclei counted
Procedure: as §1, §2, §3

[6] = biological target: T1, recombinant, full length AKT1/PKBα (Homo sapiens, UniProt P31749); test: In vitro inhibition of recombinant AKT (GSK-3 fusion protein phosphorylation); type: biochemical; details: 5 μM, pre-incubated two hours on ice
T1 construct: active, recombinant, full length AKT1/PKBα protein; purchased Upstate Biotechnology, Lake Placid, N.Y
Procedure: In vitro inhibition of recombinant AKT. In vitro kinase assays can be performed using an active, recombinant, full length AKT1/PKBα protein (available from Upstate Biotechnology, Lake Placid, N.Y.) or with an active, recombinant AKT1/PKBα protein, referred to herein as AKT1ΔPH, that lacks the pleckstrin homology domain (also available from Upstate Biotechnology). 10 ng of the recombinant enzyme in 25 μl 1× kinase buffer (25 mM Tris, pH 7.5; 5 mM β-glycerol phosphate; 2 mM dithiothreitol; 0.1 mM Na3VO4; and 10 mM MgCl2) is mixed with 2.5 μl of DMSO and a test compound (5 μM). […] After incubating the suspensions at 30° C. for 30 minutes, the reaction can be terminated by the addition of 3×SDS sample buffer (187.5 mM Tris-HCl, pH 6.8; 6% SDS; 30% glycerol; 150 mM dithiothreitol; and 0.03% bromophenol blue). The samples are then boiled for five minutes. The proteins can be separated on a 12% SDS polyacrylamide gel, and subsequently transferred to a nitrocellulose membrane. The membranes are preferably incubated with rabbit polyclonal anti-phospho-GSK-3α/β (Ser21/9) antibody (available from Cell Signaling Technology, Beverly, Mass., catalog # 9331).
The phosphorylation status of GSK-3 protein can also be used to study the AKT inhibitory activity of phenoxazines (including the phenoxazine compounds listed in Table I above) and acridone compounds. […]

Rh18 cells [7] = details: 7.5 µM
Procedure: as §4, §5

Rh30 cells [8] = test: Cell growth inhibition, Rh30 cells; type: cell-based, human; details: complete medium, six days, nuclei counted
Procedure: as §1, §2, §3

Rh18 cells [9] = test: Determination of apoptosis (Annexin V-FITC/propidium iodide flow cytometry), Rh18 cells; details: Rh18, 7.5 μM, four days, n = 3
Procedure: as §4, §5

Rh1 cells [10] = test: Determination of apoptosis (Annexin V-FITC/propidium iodide flow cytometry), Rh1 cells; details: Rh1, 6.5 μM, four days, n = 3
Procedure: as §4, §5

T1 sequence (P31749 whole entry, the tested form may be a part): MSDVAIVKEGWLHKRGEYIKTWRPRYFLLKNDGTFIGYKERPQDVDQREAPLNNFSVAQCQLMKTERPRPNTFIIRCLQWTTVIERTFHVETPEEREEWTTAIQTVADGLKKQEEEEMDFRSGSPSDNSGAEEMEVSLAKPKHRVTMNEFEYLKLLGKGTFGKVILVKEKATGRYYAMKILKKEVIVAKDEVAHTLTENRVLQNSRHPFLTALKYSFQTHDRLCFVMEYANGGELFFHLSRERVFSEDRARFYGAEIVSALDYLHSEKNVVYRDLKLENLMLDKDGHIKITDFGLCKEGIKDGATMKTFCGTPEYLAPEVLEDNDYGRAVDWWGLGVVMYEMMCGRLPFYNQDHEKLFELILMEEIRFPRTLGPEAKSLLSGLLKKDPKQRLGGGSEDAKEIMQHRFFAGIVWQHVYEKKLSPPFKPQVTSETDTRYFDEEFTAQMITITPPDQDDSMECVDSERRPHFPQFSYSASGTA

Row | Molecule | Percentage of cells ± SD, Apoptotic (Rh30 cells [1]) [%] | IC50 (Rh18 cells [2]) [µM] | Percentage of cells ± SD, Viable (Rh1 cells [3]) | Percentage of cells ± SD, Viable (Rh30 cells [4]) | IC50 (Rh1 cells [5]) [µM] | inhibition of GSK-3 phosphorylation by recombinant AKT [6] | Percentage of cells ± SD, Viable (Rh18 cells [7]) [%] | IC50 (Rh30 cells [8]) [µM] | Percentage of cells ± SD, Apoptotic (Rh18 cells [9]) [%] | Percentage of cells ± SD, Viable (Rh30 cells [1]) [%] | Percentage of cells ± SD, Viable (Rh1 cells [10]) [%] | Percentage of cells ± SD, Viable (Rh18 cells [9]) [%]
1 | 10-[4′-[(β-hydroxyethyl)piperazino]butyl]-2-chlorophenoxazine [Compound 15B] | 88.67 ± 1.69 | 5 | 23.33 ± 8.66^d % | 11.00 ± 2.16^d % | 2 | completely blocked | 67.00 ± 7.48 | 6 | 32.70 ± 8.99 | – | – | –
2 | CCN(CC)CCCCN1c2ccccc2Oc2ccc(Cl)cc21 [Compound 10B, 10-[4′-(N-diethylamino)butyl]-2-chlorophenoxazine] | 43.00 ± 2.17 | 5 | – | – | 2 | at least nearly complete | – | 6 | 34.33 ± 6.13 | 56.67 ± 2.62 | 47.70 ± 7.90 | 65.00 ± 2.94
